One experiment deals with T1, αvβ1 (UniProt G3HZ55+P06756).
T1 construct: expressed in transfected cells; host or cells: CHO cells deficient in α5 gene, transfected with αv gene
Briefly: αvβ1 cell adhesion inhibition test (αv-transfected CHO cells on human fibronectin). It counts as cell-based. Conditions: human fibronectin coating, 1 mM MnCl2, 1 hour, read-out: IC50 (rate of inhibition of cell adhesion, αvβ1). Here is the method:
Test Example 1 was performed by partially modifying the method of Reed et al. (Sci Transl Med., 7 (288), 288ra79, 2015).
Human fibronectin (manufactured by Sigma-Aldrich Co. LLC, F0895) was prepared at 1.25 μg/mL with phosphate buffered saline (PBS), dispensed at 100 μL/well to a 96-well plate, and left standing overnight. The plate was washed with Hanks' balanced salt solution (HBSS), then subjected to blocking treatment with Dulbecco's modified Eagle medium (DMEM) containing 1% bovine serum-derived albumin (BSA) (FUJIFILM Wako Pure Chemical Corp., for cell culture, 017-22231), and used as a coated plate in the adhesion test.
αv-transfected cells (CHO cells deficient in α5 gene and transfected with αv gene) cultured in Ham's F-12 medium (FUJIFILM Wako Pure Chemical Corp., 087-08335) containing 10% fetal bovine serum (FBS), 1% penicillin/streptomycin/amphotericin B (manufactured by Thermo Fisher Scientific, Inc., 15240), 1 mM GlutaMAX Supplement (manufactured by Thermo Fisher Scientific, Inc., 35050), and 400 μg/mL hygromycin B (FUJIFILM Wako Pure Chemical Corp., 080-07683) were recovered and suspended in DMEM containing 1 mM MnCl2 (manufactured by Sigma-Aldrich Co. LLC, M1787) to prepare a cell suspension. A test compound dissolved in DMSO was added thereto.
The cell suspension of 1×10^6 cells/mL containing the test compound was added at 100 μL/well to the coated plate and left standing for 1 hour in a 5% CO2 incubator (37° C.). One hour later, the supernatant was removed, and the plate was washed with HBSS. The cells that adhered to each well in the plate were stained with crystal violet, and the cells were lysed, followed by absorbance measurement. Inhibition without substrate coating was defined as 100% inhibition, and inhibition when DMSO was added instead of the test compound was defined as 0% inhibition. The rate of inhibition of cell adhesion by the test compound was calculated according to the following expression.
Rate of inhibition of cell adhesion (%)=[1−{(Absorbance in the case of adding the test compound)−(Absorbance without substrate coating)}/{(Absorbance in the case of adding DMSO)−(Absorbance without substrate coating)}]×100
An IC50 value was calculated from the rate of inhibition of cell adhesion by the test compound. A: IC50<3 nM, B: 3 nM≤IC50<10 nM, C: 10 nM≤IC50<30 nM, D: 30 nM≤IC50<100 nM, or E: IC50≥100 nM.

Experiment [1] concerns Human hepatic stellate cells. In words: Active human hepatic stellate cell dedifferentiation test (decrease in ACTA2 mRNA expression). Conditions: 3 days differentiation then 2 days with compound, read-out: IC50 (rate of decrease in ACTA2 mRNA expression). It counts as cell-based. Here is the method: Human hepatic stellate cells (manufactured by ScienCell Research Laboratories, Inc., 5300) were suspended in DMEM containing 10% FBS and […] penicillin/streptomycin/amphotericin B to prepare a cell suspension of 0.5×10^5 cells/mL, which was regarded as cells at the start of differentiation. The cells at the start of differentiation were dispensed at 1 mL/well to a 12-well plate and cultured, for differentiation, for 3 days in a 5% CO2 incubator (37° C.).
The culture solution in each well was removed, and DMEM containing 10% FBS and 1% penicillin/streptomycin/amphotericin B supplemented with a test compound dissolved in DMSO (final DMSO concentration: 0.1%) was added at 1 mL/well. The resultant was further cultured for 2 days in a 5% CO2 incubator (37° C.). In Test Example 4, the same reagents as in Test Example 1 were used unless otherwise specified.
RNA in the cultured cells was extracted using NucleoSpin® RNA (manufactured by Takara Bio Inc., U0955C), and cDNA was further synthesized from the extracted RNA using Prime Script™ RT reagent Kit with gDNA Eraser (manufactured by Takara Bio Inc., RR047A). Real time PCR was performed using the synthesized cDNA, various primers and TB Green® Premix Ex Taq™ II (manufactured by Takara Bio Inc., RR820A) and using PCR Thermal Cycler Dice Real Time (manufactured by Takara Bio Inc., System Code TP910, Model Code TP900). The primers used were actin alpha 2, smooth muscle (ACTA2) primer (manufactured by Takara Bio Inc., HA136273) and glyceraldehyde-3-phosphate dehydrogenase (GAPDH) primer (manufactured by Takara Bio Inc., HA067812).
The amplification curve of PCR was analyzed by the comparative Ct method. The expression level of ACTA2 mRNA was corrected with the expression level of GAPDH mRNA. An ACTA2 mRNA expression level when DMSO was added instead of the test compound was defined as 100%, and an ACTA2 mRNA expression level in the cells at the start of differentiation was defined as 0%. The rate of decrease in ACTA2 mRNA expression by the test compound was calculated according to the following expression.
Rate of decrease in ACTA2 mRNA expression (%)=[1−{(ACTA2 mRNA expression level in the case of adding the test compound)−(ACTA2 mRNA expression level in the cells at the start of differentiation)}/{(ACTA2 mRNA expression level in the case of adding DMSO)−(ACTA2 mRNA expression level in the cells at the start of differentiation)}]×100
An IC50 value was calculated from the rate of decrease in ACTA2 mRNA expression by the test compound. A: IC50<10 nM, B: 10 nM≤IC50<50 nM, C: 50 nM≤IC50<100 nM, or D: IC50≥100 nM.

From patent US20230192661A1, “1, 4, 5, 6-TETRAHYDROPYRIMIDINE-2-AMINE DERIVATIVE” (UBE Corporation, priority 2020, published 2023) come the findings set out here.

Each structure is given as a SMILES string. A value given as a limit tells only on which side of the number the result lay.

T1 sequence (P06756 31-889 limits assumed): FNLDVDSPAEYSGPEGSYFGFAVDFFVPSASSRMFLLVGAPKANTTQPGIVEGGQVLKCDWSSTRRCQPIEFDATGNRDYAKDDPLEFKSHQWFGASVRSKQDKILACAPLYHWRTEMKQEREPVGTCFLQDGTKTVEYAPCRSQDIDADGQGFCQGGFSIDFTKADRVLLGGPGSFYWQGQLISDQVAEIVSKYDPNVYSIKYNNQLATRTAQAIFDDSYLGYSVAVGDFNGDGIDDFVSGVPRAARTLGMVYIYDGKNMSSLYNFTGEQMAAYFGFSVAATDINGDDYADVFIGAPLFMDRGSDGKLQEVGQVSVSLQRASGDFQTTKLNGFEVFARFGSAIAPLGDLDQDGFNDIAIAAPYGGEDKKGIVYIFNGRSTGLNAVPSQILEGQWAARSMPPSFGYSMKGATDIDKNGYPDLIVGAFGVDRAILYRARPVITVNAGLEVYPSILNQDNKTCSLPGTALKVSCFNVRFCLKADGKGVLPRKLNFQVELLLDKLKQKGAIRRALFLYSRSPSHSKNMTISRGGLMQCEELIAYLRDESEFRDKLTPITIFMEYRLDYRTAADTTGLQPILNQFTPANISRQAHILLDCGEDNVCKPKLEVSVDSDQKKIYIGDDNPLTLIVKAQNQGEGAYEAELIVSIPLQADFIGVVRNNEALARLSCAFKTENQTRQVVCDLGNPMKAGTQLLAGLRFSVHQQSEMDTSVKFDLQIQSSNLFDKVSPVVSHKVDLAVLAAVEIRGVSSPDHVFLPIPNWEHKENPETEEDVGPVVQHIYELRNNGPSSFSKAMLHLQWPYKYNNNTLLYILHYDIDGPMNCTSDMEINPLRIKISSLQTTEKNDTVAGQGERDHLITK
T1 sequence (P06756 891-1048 limits assumed): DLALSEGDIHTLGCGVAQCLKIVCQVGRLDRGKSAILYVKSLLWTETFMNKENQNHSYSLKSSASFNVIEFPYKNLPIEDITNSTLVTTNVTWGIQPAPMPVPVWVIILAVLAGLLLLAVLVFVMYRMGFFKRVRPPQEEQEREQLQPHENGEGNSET
T1 sequence (G3HZ55 21-798): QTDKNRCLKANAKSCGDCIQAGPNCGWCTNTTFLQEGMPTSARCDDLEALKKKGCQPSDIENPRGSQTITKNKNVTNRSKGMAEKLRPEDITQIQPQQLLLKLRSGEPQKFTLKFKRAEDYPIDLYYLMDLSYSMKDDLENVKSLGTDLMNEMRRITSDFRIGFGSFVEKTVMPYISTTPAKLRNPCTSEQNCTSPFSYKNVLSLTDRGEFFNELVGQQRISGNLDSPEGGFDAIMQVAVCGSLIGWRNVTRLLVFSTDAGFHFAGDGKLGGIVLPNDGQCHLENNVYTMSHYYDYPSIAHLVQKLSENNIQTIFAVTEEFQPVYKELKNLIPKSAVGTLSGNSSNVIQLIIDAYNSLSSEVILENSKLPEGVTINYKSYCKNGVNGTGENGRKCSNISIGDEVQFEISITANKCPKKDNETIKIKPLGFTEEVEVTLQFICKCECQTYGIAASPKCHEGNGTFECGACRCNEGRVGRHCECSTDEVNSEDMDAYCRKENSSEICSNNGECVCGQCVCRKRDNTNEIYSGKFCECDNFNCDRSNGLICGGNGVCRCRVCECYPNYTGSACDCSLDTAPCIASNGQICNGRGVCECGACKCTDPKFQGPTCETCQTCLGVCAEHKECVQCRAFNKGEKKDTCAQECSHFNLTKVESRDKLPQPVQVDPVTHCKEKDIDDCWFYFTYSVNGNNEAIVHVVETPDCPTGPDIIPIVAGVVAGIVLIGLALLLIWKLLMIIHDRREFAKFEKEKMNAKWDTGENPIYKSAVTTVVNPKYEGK

Turning to `O=C(O)C[C@H](NC(=O)CNC(=O)c1cc(NC2=NCC(F)CN2)c2cn[nH]c2c1)c1cc(Cl)cc(Br)c1` (stereo partly drawn) [Example 18-(b), (3S)-3-(3-bromo-5-chlorophenyl)-3-(2-(4-((5-fluoro-1,4,5,6-tetrahydropyrimidin-2-yl)amino)-1H-indazole-6-carboxamido)acetamido)propanoic acid], the IC50 (usually the midpoint of a concentration-inhibition curve) at αvβ1 is less than 3 nM; in experiment [1], less than 10 nM.

Consider `O=C(O)C[C@H](NC(=O)CNC(=O)c1cc(NC2=NCC(F)CN2)c2cn[nH]c2c1)c1cc(C(F)(F)F)ccc1F` (stereo partly drawn) [Example 11-(b), (3S)-3-(2-(4-((5-fluoro-1,4,5,6-tetrahydropyrimidin-2-yl)amino)-1H-indazole-6-carboxamido)acetamido)-3-(2-fluoro-5-(trifluoromethyl)phenyl)propanoic acid], for which the IC50 at αvβ1 is 3 to 10 nM; in experiment [1], less than 10 nM.

As for `O=C(O)C[C@H](NC(=O)CNC(=O)c1cc(NC2=NCC(F)CN2)c2cn[nH]c2c1)c1cccc(Br)c1` (stereo partly drawn) [Example 42-(b), (3S)-3-(3-bromophenyl)-3-(2-(4-((5-fluoro-1,4,5,6-tetrahydropyrimidin-2-yl)amino)-1H-indazole-6-carboxamido)acetamido)propanoic acid], the IC50 on αvβ1 was 3 to 10 nM; in experiment [1], 10 to 50 nM.

Turning to `O=C(O)C[C@H](NC(=O)CNC(=O)c1cc(NC2=NCC(F)CN2)c2cn[nH]c2c1)c1cc(OC(F)F)cc(C(F)(F)F)c1` (stereo partly drawn) [Example 24-(b), (3S)-3-(3-(difluoromethoxy)-5-(trifluoromethyl)phenyl)-3-(2-(4-((5-fluoro-1,4,5,6-tetrahydropyrimidin-2-yl)amino)-1H-indazole-6-carboxamido)acetamido)propanoic acid], the IC50 on αvβ1 is less than 3 nM; in experiment [1], less than 10 nM.

`O=C(O)C[C@H](NC(=O)CNC(=O)c1cc(NC2=NCC(F)CN2)c2cn[nH]c2c1)c1cc(Br)cc(I)c1` (stereo partly drawn) [Example 20-(b), (3S)-3-(3-bromo-5-iodophenyl)-3-(2-(4-((5-fluoro-1,4,5,6-tetrahydropyrimidin-2-yl)amino)-1H-indazole-6-carboxamido)acetamido)propanoic acid]: the IC50 on αvβ1 was less than 3 nM; in experiment [1] it was less than 10 nM.

`O=C(O)C[C@H](NC(=O)CNC(=O)c1cc(NC2=NCC(F)CN2)c2cn[nH]c2c1)c1cccc(C(F)F)c1` (stereo partly drawn) [Example 38-(b), (3S)-3-(3-(difluoromethyl)phenyl)-3-(2-(4-((5-fluoro-1,4,5,6-tetrahydropyrimidin-2-yl)amino)-1H-indazole-6-carboxamido)acetamido)propanoic acid]: the IC50 on αvβ1 was less than 3 nM; in experiment [1], less than 10 nM.

As to `O=C(O)C[C@H](NC(=O)CNC(=O)c1cc(NC2=NCC(F)CN2)c2cn[nH]c2c1)c1cc(Br)cc(OC(F)(F)F)c1` (stereo partly drawn) [Example 32-(b), (3S)-3-(3-bromo-5-(trifluoromethoxy)phenyl)-3-(2-(4-((5-fluoro-1,4,5,6-tetrahydropyrimidin-2-yl)amino)-1H-indazole-6-carboxamido)acetamido)propanoic acid], the concentration for half-maximal inhibition (IC50) at αvβ1 is less than 3 nM; in experiment [1], 10 to 50 nM.

Turning to `O=C(O)C[C@H](NC(=O)CNC(=O)c1cc(NC2=NCC(F)CN2)c2cn[nH]c2c1)c1ccc(F)c(OC(F)(F)F)c1` (stereo partly drawn) [Example 34-(b), (3S)-3-(2-(4-((5-fluoro-1,4,5,6-tetrahydropyrimidin-2-yl)amino)-1H-indazole-6-carboxamido)acetamido)-3-(4-fluoro-3-(trifluoromethoxy)phenyl)propanoic acid], the IC50 was less than 3 nM at αvβ1 and 10 to 50 nM in experiment [1].

As to `O=C(O)C[C@H](NC(=O)CNC(=O)c1cc(NC2=NCC(F)CN2)c2cn[nH]c2c1)c1cccc(OC(F)F)c1` (stereo partly drawn) [Example 37-(b), (3S)-3-(3-(difluoromethoxy)phenyl)-3-(2-(4-((5-fluoro-1,4,5,6-tetrahydropyrimidin-2-yl)amino)-1H-indazole-6-carboxamido)acetamido)propanoic acid], the results for the IC50 (on αvβ1; in experiment [1]) were 3 to 10 nM and 10 to 50 nM, respectively.

In the case of `O=C(O)C[C@H](NC(=O)CNC(=O)c1cc(NC2=NCC(F)CN2)c2cn[nH]c2c1)c1cc(Br)cc(Br)c1` (stereo partly drawn) [Example 19-(b), (3S)-3-(3,5-dibromophenyl)-3-(2-(4-((5-fluoro-1,4,5,6-tetrahydropyrimidin-2-yl)amino)-1H-indazole-6-carboxamido)acetamido)propanoic acid], the IC50 is less than 3 nM on αvβ1 and less than 10 nM in experiment [1].

For `O=C(O)C[C@H](NC(=O)CNC(=O)c1cc(NC2=NCC(F)CN2)c2cn[nH]c2c1)c1cc(Br)cc(C(F)(F)F)c1` (stereo partly drawn) [Example 2-(b), (3S)-3-(3-bromo-5-(trifluoromethyl)phenyl)-3-(2-(4-((5-fluoro-1,4,5,6-tetrahydropyrimidin-2-yl)amino)-1H-indazole-6-carboxamido)acetamido)propanoic acid], the IC50 on αvβ1 was 3 to 10 nM; in experiment [1], 10 to 50 nM.

On to `O=C(O)C[C@H](NC(=O)CNC(=O)c1cc(NC2=NCC(F)CN2)c2cn[nH]c2c1)c1cc(Cl)cc(I)c1` (stereo partly drawn) [Example 21-(b), (3S)-3-(3-chloro-5-iodophenyl)-3-(2-(4-((5-fluoro-1,4,5,6-tetrahydropyrimidin-2-yl)amino)-1H-indazole-6-carboxamido)acetamido)propanoic acid], for which the results for the IC50 (at αvβ1; in experiment [1]) were less than 3 nM and 10 to 50 nM, respectively.

With `O=C(O)C[C@H](NC(=O)CNC(=O)c1cc(NC2=NCC(F)CN2)c2cn[nH]c2c1)c1cc(Cl)cc(C(F)(F)F)c1` (stereo partly drawn) [Example 1-(b), (3S)-3-(3-chloro-5-(trifluoromethyl)phenyl)-3-(2-(4-((5-fluoro-1,4,5,6-tetrahydropyrimidin-2-yl)amino)-1H-indazole-6-carboxamido)acetamido)propanoic acid], the IC50 on αvβ1 is less than 3 nM; in experiment [1] it was less than 10 nM.

`O=C(O)C[C@H](NC(=O)CNC(=O)c1cc(NC2=NCC(F)CN2)cc2[nH]ncc12)c1cc(Cl)cc(C(F)(F)F)c1` (stereo partly drawn) [Example 52-(b), (3S)-3-(3-chloro-5-(trifluoromethyl)phenyl)-3-(2-(6-((5-fluoro-1,4,5,6-tetrahydropyrimidin-2-yl)amino)-1H-indazole-4-carboxamido)acetamido)propanoic acid]: the concentration for half-maximal inhibition (IC50) was less than 3 nM at αvβ1 and 10 to 50 nM in experiment [1].
